According to patent US20100168125A1, “INDOLIZINES AND AZA-ANALOG DERIVATIVES THEREOF AS CNS ACTIVE COMPOUNDS” (priority 2007, published 2010):
pKi: −log10 of the molar value. Like-named read-outs stand apart in the source and are kept apart here.

Tests used:
human D2long receptor = target: T1, human D2long receptor (Homo sapiens, UniProt P14416); assay: radioligand binding with [^3H]spiperone, D2long; conditions: [^3H]spiperone, CHO membranes, mean of 2 to 4 experiments; read-out: Ki D2lo
T1 construct: expressed in transfected cells; host or cells: Chinese hamster ovary (CHO) cells, membranes
T1 sequence (P14416 whole entry): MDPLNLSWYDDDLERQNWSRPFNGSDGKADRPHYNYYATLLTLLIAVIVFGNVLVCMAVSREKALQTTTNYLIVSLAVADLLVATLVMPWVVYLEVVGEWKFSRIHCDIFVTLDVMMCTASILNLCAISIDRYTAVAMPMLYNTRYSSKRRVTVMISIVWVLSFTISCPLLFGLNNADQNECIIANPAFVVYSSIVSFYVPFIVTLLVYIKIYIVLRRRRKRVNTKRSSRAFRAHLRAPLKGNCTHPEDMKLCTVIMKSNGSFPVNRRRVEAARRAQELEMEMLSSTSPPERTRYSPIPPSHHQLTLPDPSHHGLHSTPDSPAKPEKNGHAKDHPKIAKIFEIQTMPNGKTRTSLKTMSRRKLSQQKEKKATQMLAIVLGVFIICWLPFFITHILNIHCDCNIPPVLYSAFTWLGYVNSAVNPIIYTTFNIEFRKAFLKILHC
Procedure: (§1) For the determination of binding affinity to the receptors of the dopamine D2 family membranes were established carrying the human D2long, D2short, D3 or D4.4 receptor subtype expressed in Chinese hamster ovary cell lines. In principle, the binding experiments started when incubating an appropriate amount of membrane with the radioligand [^3H]spiperone and the particular test compounds diluted in a wide range of different concentrations from subnanomolar up to micromolar.

human D2short receptor = target: T2, human D2short receptor (Homo sapiens, UniProt P14416); assay: radioligand binding with [^3H]spiperone, D2short; conditions: [^3H]spiperone, CHO membranes, mean of 2 to 4 experiments; read-out: Ki D2sh
T2 construct: expressed in transfected cells; host or cells: Chinese hamster ovary (CHO) cells, membranes
T2 sequence (P14416 1-414 isoform P14416-2): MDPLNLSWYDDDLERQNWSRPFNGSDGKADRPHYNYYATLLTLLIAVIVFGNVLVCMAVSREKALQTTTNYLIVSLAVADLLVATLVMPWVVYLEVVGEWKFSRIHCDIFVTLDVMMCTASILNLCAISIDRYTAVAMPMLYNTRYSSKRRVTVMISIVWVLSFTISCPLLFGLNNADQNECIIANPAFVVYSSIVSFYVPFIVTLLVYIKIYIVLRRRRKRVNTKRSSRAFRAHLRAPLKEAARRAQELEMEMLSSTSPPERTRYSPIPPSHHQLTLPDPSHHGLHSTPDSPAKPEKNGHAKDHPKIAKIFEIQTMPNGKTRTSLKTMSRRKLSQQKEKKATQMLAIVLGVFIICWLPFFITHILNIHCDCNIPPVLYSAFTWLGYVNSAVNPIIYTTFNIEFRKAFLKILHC
Procedure: as §1

human D3 receptor = target: T3, human D3 receptor (Homo sapiens, UniProt P35462); assay: radioligand binding with [^3H]spiperone, D3; conditions: [^3H]spiperone, CHO membranes, mean of 2 to 4 experiments
T3 construct: expressed in transfected cells; host or cells: Chinese hamster ovary (CHO) cells, membranes
T3 sequence (P35462 whole entry): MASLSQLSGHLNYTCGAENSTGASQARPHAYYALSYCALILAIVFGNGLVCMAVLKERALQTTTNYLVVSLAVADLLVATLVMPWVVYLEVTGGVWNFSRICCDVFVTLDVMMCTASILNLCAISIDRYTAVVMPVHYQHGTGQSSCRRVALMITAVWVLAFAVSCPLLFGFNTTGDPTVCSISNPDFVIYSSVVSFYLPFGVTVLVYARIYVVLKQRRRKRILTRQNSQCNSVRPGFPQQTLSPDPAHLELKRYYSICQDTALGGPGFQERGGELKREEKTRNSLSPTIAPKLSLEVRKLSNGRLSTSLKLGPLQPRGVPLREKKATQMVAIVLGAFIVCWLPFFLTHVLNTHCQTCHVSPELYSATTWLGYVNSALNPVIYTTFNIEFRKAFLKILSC
Procedure: as §1

human D4.4 receptor = target: T4, human D4.4 receptor (Homo sapiens, UniProt P21917); assay: radioligand binding with [^3H]spiperone, D4.4; conditions: [^3H]spiperone, CHO membranes, mean of 2 to 4 experiments
T4 construct: expressed in transfected cells; host or cells: Chinese hamster ovary (CHO) cells, membranes
T4 sequence (P21917 1-419): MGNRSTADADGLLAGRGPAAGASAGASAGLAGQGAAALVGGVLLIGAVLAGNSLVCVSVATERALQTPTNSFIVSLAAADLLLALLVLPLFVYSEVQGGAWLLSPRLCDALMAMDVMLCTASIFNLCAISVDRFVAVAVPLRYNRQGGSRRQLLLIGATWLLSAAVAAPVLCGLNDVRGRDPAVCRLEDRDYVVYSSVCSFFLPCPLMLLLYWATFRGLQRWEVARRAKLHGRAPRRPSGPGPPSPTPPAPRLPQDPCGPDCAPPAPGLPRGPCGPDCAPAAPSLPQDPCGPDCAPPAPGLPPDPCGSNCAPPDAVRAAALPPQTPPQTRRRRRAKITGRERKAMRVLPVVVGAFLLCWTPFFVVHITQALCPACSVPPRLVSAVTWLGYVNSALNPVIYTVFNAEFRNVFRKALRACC
Procedure: as §1

5-HT1A receptor = target: T5, 5-HT1A receptor (Sus scrofa, UniProt A0A4X1UTF5); assay: radioligand binding, porcine cortical membranes, [^3H]8-OH-DPAT and [^3H]WAY 100635; conditions: porcine cortical membranes
T5 construct: membrane preparations from porcine cortical material; from tissue; host or cells: porcine cerebral cortex membranes
T5 sequence (A0A4X1UTF5 1-422): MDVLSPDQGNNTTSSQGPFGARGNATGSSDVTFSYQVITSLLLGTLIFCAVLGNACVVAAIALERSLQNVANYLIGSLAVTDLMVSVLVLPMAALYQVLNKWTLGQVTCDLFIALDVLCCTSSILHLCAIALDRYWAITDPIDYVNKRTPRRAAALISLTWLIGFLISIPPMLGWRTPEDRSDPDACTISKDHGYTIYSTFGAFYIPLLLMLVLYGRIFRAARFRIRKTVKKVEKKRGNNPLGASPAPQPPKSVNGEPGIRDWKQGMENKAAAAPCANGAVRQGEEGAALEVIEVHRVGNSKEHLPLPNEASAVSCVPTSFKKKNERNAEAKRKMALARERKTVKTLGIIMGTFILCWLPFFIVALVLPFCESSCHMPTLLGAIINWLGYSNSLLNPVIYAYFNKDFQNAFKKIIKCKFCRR

5-HT2 receptor = target: T6, 5-HT2 receptor (Sus scrofa, UniProt P50129); assay: radioligand binding, porcine cortical membranes, [^3H]ketanserin; conditions: porcine cortical membranes, [^3H]ketanserin
T6 construct: membrane preparations from porcine cortical material; from tissue; host or cells: porcine cerebral cortex membranes
T6 sequence (P50129 whole entry): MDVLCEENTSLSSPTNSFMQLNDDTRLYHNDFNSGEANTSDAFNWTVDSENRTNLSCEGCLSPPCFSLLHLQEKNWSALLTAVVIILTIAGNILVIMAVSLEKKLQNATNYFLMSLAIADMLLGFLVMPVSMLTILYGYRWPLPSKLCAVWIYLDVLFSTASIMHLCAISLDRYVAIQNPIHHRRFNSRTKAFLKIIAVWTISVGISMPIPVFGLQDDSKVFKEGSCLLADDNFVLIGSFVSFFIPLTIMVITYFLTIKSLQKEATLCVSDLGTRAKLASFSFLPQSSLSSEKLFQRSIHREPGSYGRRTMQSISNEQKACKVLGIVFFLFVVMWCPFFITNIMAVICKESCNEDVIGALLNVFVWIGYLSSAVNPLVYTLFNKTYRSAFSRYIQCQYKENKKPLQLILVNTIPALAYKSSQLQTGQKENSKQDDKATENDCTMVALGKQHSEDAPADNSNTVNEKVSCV

[1] = target: dopamine D2short receptor (Homo sapiens, UniProt P14416); assay: [^35S]GTPγS-incorporation assay, intrinsic activity
Sequence of dopamine D2short receptor (P14416 1-414 isoform P14416-2): as the sequence (P14416 1-414 isoform P14416-2) above

[2] = read-out: D2short: [^35S]GTPγS intrinsic activity, % activity of quinpirol
[3] = read-out: D2short: [^35S]GTPγS intrinsic activity

| Compound | pKi (human D2long receptor) | pKi (human D2short receptor) | pKi (human D3 receptor) | pKi (human D4.4 receptor) | pKi (5-HT1A receptor) | pKi (5-HT2 receptor) | melting point [°C] | Emax [1, 2] [%] | Emax [1, 3] [%] | D2short: [^35S]GTPγS intrinsic activity ([1]; % activity of quinpirol) |
| --- | --- | --- | --- | --- | --- | --- | --- | --- | --- | --- |
| O=Cc1cnn2ccc(OCCCCN3CCN(c4ccc(Cl)cc4)CC3)cc12 [Example E25] | > 7.52 | > 7.52 | 6.52 to 7.52 | 6.52 to 7.52 | 6.52 to 7.52 | 5.52 to 6.52 | 113 | 15 to 40 |  |  |
| O=Cc1cnn2cccc(OCCCCN3CCN(c4ccccc4Cl)CC3)c12 [Example E12, 4-[4-[4-(2-Chlorophenyl)piperazin-1-yl]butoxy]pyrazolo[1,5-a]pyridine-3-carbaldehyde] | > 7.52 | > 7.52 | 6.52 to 7.52 | > 7.52 | > 7.52 | 5.52 to 6.52 | 125 |  | 15 to 40 |  |
| Clc1ccccc1N1CCN(CCCCOc2ccn3ncc(Cl)c3c2)CC1 [Example E47, 3-Chloro-5-[4-[4-(2-chlorophenyl)piperazin-1-yl]butoxy]pyrazolo[1,5-a]pyridine] | 6.52 to 7.52 | > 7.52 | > 7.52 | 6.52 to 7.52 | 6.52 to 7.52 | 5.52 to 6.52 | 63 | < 15 |  |  |
| Clc1ccccc1N1CCN(CCCCOc2ccc3ccnn3c2)CC1 [Example E53, 6-[4-[4-(2-Chlorophenyl)piperazin-1-yl]butoxy]pyrazolo[1,5-a]pyridine] | > 7.52 | > 7.52 | > 7.52 | > 7.52 | > 7.52 | 5.52 to 6.52 | 86 | < 15 |  |  |
| Clc1cccc(N2CCN(CCCOCc3ccn4nccc4c3)CC2)c1Cl [Example E13, 5-[3-[4-(2,3-Dichlorophenyl)piperazin-1-yl]propoxymethyl]pyrazolo[1,5-a]pyridine] | > 7.52 | > 7.52 | > 7.52 | 6.52 to 7.52 | 6.52 to 7.52 | 6.52 to 7.52 | 69 |  | < 15 |  |
| O=Cc1cnn2cccc(OCCCCN3CCN(c4cccc(Cl)c4Cl)CC3)c12 [Example E10, 4-[4-[4-(2,3-Dichlorophenyl)piperazin-1-yl]butoxy]pyrazolo[1,5-a]pyridine-3-carbaldehyde] | > 7.52 | > 7.52 | > 7.52 | 6.52 to 7.52 | 6.52 to 7.52 | 6.52 to 7.52 | 128 |  | 15 to 40 |  |
| Clc1cccc(N2CCN(CCCCOc3ccn4ncc(Br)c4c3)CC2)c1Cl [Example E42, 3-Bromo-5-[4-[4-(2,3-dichlorophenyl)piperazin-1-yl]butoxy]pyrazolo[1,5-a]pyridine] | 6.52 to 7.52 | 6.52 to 7.52 | > 7.52 | 5.52 to 6.52 | 5.52 to 6.52 | < 5.52 | 132 | 15 to 40 |  |  |
| COc1ccccc1N1CCN(CCCCOc2cccn3nccc23)CC1 [Example E8, 4-[4-[4-(2-Methoxyphenyl)piperazin-1-yl]butoxy]pyrazolo[1,5-a]pyridine] | > 7.52 | > 7.52 | > 7.52 | > 7.52 | > 7.52 | 5.52 to 6.52 | 74 | < 15 |  |  |
| O=Cc1cnn2cc(OCCCCN3CCN(c4cccc(Cl)c4Cl)CC3)ccc12 [Example E54, 6-[4-[4-(2,3-Dichlorophenyl)piperazin-1-yl]butoxy]pyrazolo[1,5-a]pyridine-3-carbaldehyde] | > 7.52 | > 7.52 | > 7.52 | > 7.52 | > 7.52 | 6.52 to 7.52 | 99 | < 15 |  |  |
| COc1ccc(N2CCN(CCCCOc3ccn4ncc(C=O)c4c3)CC2)cc1 [Example E24, 5-[4-[4-(4-Methoxyphenyl)piperazin-1-yl]butoxy]pyrazolo[1,5-a]pyridine-3-carbaldehyde] | 6.52 to 7.52 | 6.52 to 7.52 | 5.52 to 6.52 | 5.52 to 6.52 | 6.52 to 7.52 | < 5.52 | 114 | < 15 |  |  |
| ON=Cc1cnn2ccc(OCCCCN3CCN(c4ccccc4Cl)CC3)cc12 [Example E35, (s-cis) 5-[4-[4-(2-Chlorophenyl)piperazin-1-yl]butoxy]pyrazolo[1,5-a]pyridine-3-carbaldehyde oxime] | > 7.52 | > 7.52 | > 7.52 | > 7.52 | > 7.52 | 6.52 to 7.52 | 160 |  |  | A (A=Full antagonist (<15%)) |
| O=Cc1c(OCCCCN2CCN(c3ccccc3Cl)CC2)nn2ccccc12 [Example E6, 2-[4-[4-(2-Chlorophenyl)piperazin-1-yl]butoxy]pyrazolo[1,5-a]pyridine-3-carbaldehyde] | > 7.52 | 6.52 to 7.52 | > 7.52 | 6.52 to 7.52 | > 7.52 | 5.52 to 6.52 | 104 |  | 15 to 40 |  |
| O=Cc1cnn2ccc(OCCCCN3CCN(c4ccc(O)cc4)CC3)cc12 [Example E26, 5-[4-[4-(4-Hydroxyphenyl)piperazin-1-yl]butoxy]pyrazolo[1,5-a]pyridine-3-carbaldehyde] | 6.52 to 7.52 | > 7.52 | 6.52 to 7.52 | 6.52 to 7.52 | 6.52 to 7.52 | 5.52 to 6.52 | 164 | 40 to 75 |  |  |
| COc1ccccc1N1CCN(CCCCOc2ccn3ncc(I)c3c2)CC1 [Example E49, 3-Iodo-5-[4-[4-(2-methoxyphenyl)piperazin-1-yl]butoxy]pyrazolo[1,5-a]pyridine] | > 7.52 | > 7.52 | > 7.52 | > 7.52 | > 7.52 | 5.52 to 6.52 | 61 | < 15 |  |  |
| O=Cc1c(OCCCCN2CCN(c3cccc(Cl)c3Cl)CC2)nn2ccccc12 [Example E4, 2-[4-[4-(2,3-Dichlorophenyl)piperazin-1-yl]butoxy]pyrazolo[1,5-a]pyridine-3-carbaldehyde] | > 7.52 | > 7.52 | > 7.52 | > 7.52 | > 7.52 | 6.52 to 7.52 | 100 | 15 to 40 |  |  |
| Clc1cccc(N2CCN(CCCCOc3ccn4nccc4c3)CC2)c1Cl [Example E15, 5-[4-[4-(2,3-Dichlorophenyl)piperazin-1-yl]butoxy]pyrazolo[1,5-a]pyridine] | 6.52 to 7.52 | 6.52 to 7.52 | > 7.52 | 6.52 to 7.52 | 6.52 to 7.52 | 5.52 to 6.52 | 105 | 15 to 40 |  |  |
| O=Cc1cnn2cc(OCCCCN3CCN(c4ccccc4Cl)CC3)ccc12 [Example E56] | > 7.52 | > 7.52 | > 7.52 | > 7.52 | > 7.52 | 5.52 to 6.52 | 71 | 15 to 40 |  |  |
| COc1ccccc1N1CCN(CCCCOc2cccn3ncc(C=O)c23)CC1 [Example E11, 4-[4-[4-(2-Methoxyphenyl)piperazin-1-yl]butoxy]pyrazolo[1,5-a]pyridine-3-carbaldehyde] | > 7.52 | > 7.52 | 6.52 to 7.52 | > 7.52 | > 7.52 | 5.52 to 6.52 | 139 | < 15 |  |  |
| O=Cc1cnn2ccc(OCCCCN3CCN(c4cccc([N+](=O)[O-])c4)CC3)cc12 [Example E69, 5-[4-[4-(3-Nitrophenyl)piperazin-1-yl]butoxy]pyrazolo[1,5-a]pyridine-3-carbaldehyde] | > 7.52 | > 7.52 | 6.52 to 7.52 | 6.52 to 7.52 | 6.52 to 7.52 | 5.52 to 6.52 | 178 | 15 to 40 |  |  |
